Laboratory results as given in patent US20230172940A1, “METHODS OF EXTENDING LIFESPAN BY ADMINISTERING FERROPTOSIS INHIBITORS” (COLLABORATIVE MEDICINAL DEVELOPMENT, LLC, priority 2020, published 2023).

Experiments:
Type in all cases: in vivo, Caenorhabditis elegans
[1] = system: dead cells within live C. elegans; test: Visualization of cell death with propidium iodide; conditions: for cell death (propidium iodide), preceding organismal death: aged cohorts or young animals treated with DEM, 4-day old and 6 and 8 day old adults; for cell death (animals with any dead cells): at 6 and 8 days of age
Procedure: The red-fluorescent propidium iodide (PI)^o was used to visualize dead cells within live C. elegans after DEM treatment and during aging. Populations were incubated for 24 h at 25° C. with PI (a 10 μL volume of 0.25 mg/mL solution added to the bacterial lawn on 50 mm NGM plates) prior to the described age or with concurrent exposure to 10 mM DEM (as described above) and PI. For aging experiments^o animals were visualized at Day 6 and Day 8. Cohorts of live animals (i.e. showing spontaneous or touch-provoked movement) were isolated and mounted under glass coverslips on 2% agarose pads without anesthetic. Imaging were captures with on a Leica DMI3000B inverted microscope^o DsRed filter set and a DFC 3000G digital.
Differences between the proportion of live animals with fluorescently labelled nuclei in control versus Lip-1 and SIH treatment, either aged or exposed to DEM, were compared using a z-test.

iron = test: X-ray fluorescence microscopy, elemental mapping of iron; design: areal density of iron, Mean Diff. / total body iron, 75% Percentile / total body iron, Maximum / total body iron, Mean / total body iron, Minimum / total body iron, 25% Percentile / total body iron, Median / total body iron, Mean Diff.: unit not given here; conditions: for areal density iron, 25% Percentile / areal density iron, 75% Percentile / areal density iron, Maximum / areal density iron, Mean / areal density iron, Median / areal density iron, Minimum / total body iron, 25% Percentile / total body iron, 75% Percentile / total body iron, Maximum / total body iron, Mean / total body iron, Median / total body iron, Minimum: 250 μM SIH or 200 μM Lip-1; for areal density of iron with aging: Tables 11 and 12; for total body iron, 25% Percentile / total body iron, 75% Percentile / total body iron, Maximum / total body iron, Mean / total body iron, Median / total body iron, Minimum: per worm
Procedure: Specimens were prepared for XFM using previously described protocols. Briefly, adult C. elegans were removed from NGM, washed four times in excess S-basal (0.1 M NaCl; 0.05 M KHPO4 at pH 6.0), briefly in ice-cold 18 MΩ resistant de-ionized H2O (Millipore) and twice in ice-cold CH3COONH4 (1.5% w/v). Samples were transferred onto 0.5 μm-thick silicon nitride (Si3N4) window (Silson), excess buffer wicked away and then the slide was frozen in liquid nitrogen (N2)-chilled liquid propane using a KF-80 plunge freezer (Leica Microsystems). The samples were lyophilised overnight at −40° C. and stored under low vacuum until required.
The distribution of metals was mapped at the X-ray Fluorescence Microscopy beamline at the Australian Synchrotron using the Maia detector system. The distribution of elements with atomic number<37 were mapped using an incident beam of 15.6 keV X-rays. This incident energy allowed clear separation of X-ray fluorescence (XRF) peaks from the relatively intense elastic and inelastic scatter. The incident beam (^˜1.71×10^9 photons s^−1) was focussed to approximately 2×2 μm^2(H×V, FWHM) in the sample plane and the specimen was continuously scanned through focus (1 mm sec^−1). The resulting XRF was binned in 0.8 jim intervals in both the horizontal and vertical giving virtual pixels spanning 0.64 jim^2 of the specimen probed with a dwell time of […]. XRF intensity was normalized to the incident beam flux monitored with a nitrogen filled ionization chamber with a 27 cm path length placed upstream of the focusing optics. Three single-element thin metal foils of known areal density (Mn 18.9 jig cm^−2, Fe 50.1 jig cm^−2 and Pt 42.2 jig cm^−2, Micromatter, Canada) were used to calibrate the relationship between fluorescence flux at the detector and elemental abundance. Dynamic Analysis, as implemented in GeoPIXE 7.3 (CSIRO), was used to deconvolve the full XRF spectra at each pixel in the scan region to produce quantitative elemental maps. This procedure includes a correction for an assumed specimen composition and thickness, in this case 30 jim of cellulose. Though unlikely to exactly match the actual sample characteristics, deviations from these assumptions are not significant for the results presented in this study as the effects of beam attenuation and self-absorption on calcium and iron XRF are negligible for a dried specimen of this type and size.
Analysis of elemental XRF maps was performed using a combination of tools native to GeoPIXE and ImageJ. Incident photons inelastically scattered (Compton scatter) from the sample detail the extent and internal structure of individual C. elegans. The differential scattering power of the specimens and substrate allowed individual animals (or parts thereof) to be identified as regions of interest (ROI) facilitating analysis of elemental content on a ‘per worm’ basis. This segmentation of each elemental map was achieved using the histogram of pixel intensities from Compton maps to locate the clusters within the image. ROIs composed of <10,000 pixels were deemed to be so small that their elemental content was not reflective of the elemental content of whole animals and so these were excluded from the analysis. The ‘non-worm’ region of each scan was used to calculate the value specimen elemental content was distinguishable from background noise, i.e. the critical value. The background corrected elemental maps were used to establish the areal densities and the total mass of each element associated with individual ROIs.

Wild type (N2) = test: Fertility analysis; conditions: treated from early adulthood/late L4; for Early fertility (first 24 hours): p>0.4
Procedure: Wild type (N2) adults (4-day post egg lay) were transferred to fresh plates for 30 minutes at 20° C. to establish a developmentally synchronous population. Adult nematodes were then removed, and eggs were then transferred to 25° C. As with the survival analyses, after 48 hours at 25° C., when worms were at the late L4/young adult stage individual nematodes were transferred to plates containing vehicle control, 250 μM SIH, or 200 μM Lip-1. After 24 hours, adult worms were transferred to fresh plates and transferred daily until the end of the fertile period. After allowing progeny to develop for 2 days at 20° C., they were then counted to determine daily and total fertility. Early fertility is determined by the number of progeny laid in the first 24-hour period. Differences in fertility (i.e. early and total reproductive output) were assessed using an ordinary one-way analysis of variance (ANOVA), followed by a Tukey's multiple comparison test (as implemented by Prism v7.0a, GraphPad Software).

[2] = Day 4 Control vs. Day 4 treated (control minus treated)
[3] = Day 4 treated vs. Day 8 treated, same treatment
[4] = Day 8 Control vs. Day 8 treated (control minus treated)

Structure (SMILES): O=C(N/N=C/c1ccccc1O)c1ccncc1 [SIH, Salicylaldehyde isonicotinoyl hydrazone]
- cell death (propidium iodide), preceding organismal death [1]: significantly attenuated
- cell death (animals with any dead cells) [1]: completely suppressed
- areal density iron, 25% Percentile (iron; Day 4): 298.3 pg μm^−2
- areal density iron, 75% Percentile (iron; Day 4): 357.3 pg μm^−2
- areal density iron, Maximum (iron; Day 4): 412.1 pg μm^−2
- areal density iron, Mean (iron; Day 4): 321.8 pg μm^−2
- areal density iron, Median (iron; Day 4): 304.4 pg μm^−2
- areal density iron, Minimum (iron; Day 4): 267.1 pg μm^−2
- areal density of iron, Mean Diff. (iron; [2]): 344.4
- total body iron, Mean Diff. (iron; [2]): 57.71
- areal density of iron, Mean Diff. (iron; Day 4 SIH vs. Day 4 Lip-1): −376.6
- total body iron, Mean Diff. (iron; Day 4 SIH vs. Day 4 Lip-1): −44.97
- areal density of iron, Mean Diff. (iron; [3]): −112.9
- total body iron, Mean Diff. (iron; [3]): −70.26
- total iron load (iron; Day 8): on par with the untreated control group
- areal density iron, 25% Percentile (iron; Day 8): 381.9 pg μm^−2
- areal density iron, 75% Percentile (iron; Day 8): 501.9 pg μm^−2
- areal density iron, Maximum (iron; Day 8): 558 pg μm^−2
- areal density iron, Mean (iron; Day 8): 434.7 pg μm^−2
- areal density iron, Median (iron; Day 8): 408.9 pg μm^−2
- areal density iron, Minimum (iron; Day 8): 324.2 pg μm^−2
- areal density of iron, Mean Diff. (iron; [4]): 385.6
- total body iron, Mean Diff. (iron; [4]): 15.8
- areal density of iron, Mean Diff. (iron; Day 8 SIH vs. Day 8 Lip-1): −389.9
- total body iron, Mean Diff. (iron; Day 8 SIH vs. Day 8 Lip-1): −26.49
- areal density of iron with aging (iron): dramatically reduced
- total body iron, 25% Percentile (iron; Day 4): 61.28
- total body iron, 75% Percentile (iron; Day 4): 71.8
- total body iron, Maximum (iron; Day 4): 98.92
- total body iron, Mean (iron; Day 4): 68.37
- total body iron, Median (iron; Day 4): 66.78
- total body iron, Minimum (iron; Day 4): 41.07
- total body iron, 25% Percentile (iron; Day 8): 117.5
- total body iron, 75% Percentile (iron; Day 8): 169.5
- total body iron, Maximum (iron; Day 8): 202
- total body iron, Mean (iron; Day 8): 138.6
- total body iron, Median (iron; Day 8): 127.5
- total body iron, Minimum (iron; Day 8): 74.16
- lifetime reproductive output (Wild type (N2)): no effect
- Early fertility (first 24 hours) (Wild type (N2)): not altered

Structure (SMILES): Clc1cccc(CNC2=Nc3ccccc3NC23CCNCC3)c1 [Lip-1, N-[(3-chlorophenyl)methyl]-spiro[piperidine-4,2′(1′H)-quinoxalin]-3′-amine]
- cell death (propidium iodide), preceding organismal death [1]: significantly attenuated
- cell death (animals with any dead cells) [1]: completely suppressed
- areal density iron, 25% Percentile (iron; Day 4): 630.3 pg μm^−2
- areal density iron, 75% Percentile (iron; Day 4): 732.2 pg μm^−2
- areal density iron, Maximum (iron; Day 4): 851.8 pg μm^−2
- areal density iron, Mean (iron; Day 4): 698.5 pg μm^−2
- areal density iron, Median (iron; Day 4): 711.4 pg μm^−2
- areal density iron, Minimum (iron; Day 4): 590.5 pg μm^−2
- areal density of iron, Mean Diff. (iron; [2]): −32.28
- total body iron, Mean Diff. (iron; [2]): 12.74
- areal density of iron, Mean Diff. (iron; [3]): −123.1
- total body iron, Mean Diff. (iron; [3]): −51.79
- areal density iron, 25% Percentile (iron; Day 8): 726.5 pg μm^−2
- areal density iron, 75% Percentile (iron; Day 8): 892.4 pg μm^−2
- areal density iron, Maximum (iron; Day 8): 1143 pg μm^−2
- areal density iron, Mean (iron; Day 8): 821.6 pg μm^−2
- areal density iron, Median (iron; Day 8): 800.5 pg μm^−2
- areal density iron, Minimum (iron; Day 8): 644 pg μm^−2
- areal density of iron, Mean Diff. (iron; [4]): −1.229
- total body iron, Mean Diff. (iron; [4]): −10.7
- areal density of iron with aging (iron): did not alter iron density
- total body iron, 25% Percentile (iron; Day 4): 91.34
- total body iron, 75% Percentile (iron; Day 4): 129.5
- total body iron, Maximum (iron; Day 4): 148.6
- total body iron, Mean (iron; Day 4): 113.3
- total body iron, Median (iron; Day 4): 114.6
- total body iron, Minimum (iron; Day 4): 71.51
- total body iron, 25% Percentile (iron; Day 8): 128.9
- total body iron, 75% Percentile (iron; Day 8): 189.6
- total body iron, Maximum (iron; Day 8): 277.9
- total body iron, Mean (iron; Day 8): 165.1
- total body iron, Median (iron; Day 8): 157.2
- total body iron, Minimum (iron; Day 8): 100
- lifetime reproductive output (Wild type (N2)): small decrease
- Early fertility (first 24 hours) (Wild type (N2)): not altered
